The values below come from patent US10040759B2, “Substituted azetidinyl compounds as GlyT1 inhibitors” (DART NEUROSCIENCE (CAYMAN) LTD., priority 2014, dated 2018).

In this assay the target is T1, GlyT1 (Homo sapiens, UniProt P48067).
T1 construct: expressed in transfected cells
T1 sequence (P48067 1-706): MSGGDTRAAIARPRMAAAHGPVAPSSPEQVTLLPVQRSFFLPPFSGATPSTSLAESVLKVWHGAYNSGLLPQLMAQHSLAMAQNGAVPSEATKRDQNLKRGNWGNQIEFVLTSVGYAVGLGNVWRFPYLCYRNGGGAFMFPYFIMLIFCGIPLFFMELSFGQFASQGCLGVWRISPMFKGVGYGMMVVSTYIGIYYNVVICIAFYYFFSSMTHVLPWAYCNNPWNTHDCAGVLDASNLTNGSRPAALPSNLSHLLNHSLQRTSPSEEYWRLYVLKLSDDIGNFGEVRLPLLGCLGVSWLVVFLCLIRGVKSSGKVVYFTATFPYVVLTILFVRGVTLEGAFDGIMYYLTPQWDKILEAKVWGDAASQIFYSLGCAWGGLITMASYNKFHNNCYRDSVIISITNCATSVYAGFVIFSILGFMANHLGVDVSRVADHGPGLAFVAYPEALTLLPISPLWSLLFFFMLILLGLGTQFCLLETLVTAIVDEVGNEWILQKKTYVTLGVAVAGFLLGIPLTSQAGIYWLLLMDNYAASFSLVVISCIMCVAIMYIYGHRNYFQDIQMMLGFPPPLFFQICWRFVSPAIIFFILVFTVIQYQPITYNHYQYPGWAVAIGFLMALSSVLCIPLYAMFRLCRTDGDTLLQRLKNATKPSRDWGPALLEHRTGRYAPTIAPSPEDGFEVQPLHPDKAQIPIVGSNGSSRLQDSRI
The assay is described as follows: Glycine Transporter 1 (GlyT1) uptake assay, scintillation proximity assay of [14C]-glycine uptake. In kind it is cell-based. To be noted: [14C]-glycine uptake; read-out: GlyT1 (pIC50) (converted). As for the experimental part: Glycine Transporter 1 (GlyT1) Uptake Assay
HEK293 cells stably expressing hGlyT1c were plated onto 96-well Cytostar plates at a density of 4.5×10^4 cells per well in 100 μL of growth media (DMEM containing 10% fetal bovine serum) and incubated overnight in a 37° C., 10% CO2 incubator. The following day, stock compounds in 10 mM DMSO were serially diluted in DMSO, and 2× compound solutions were prepared by diluting compound again (1:100) in HBSS. […] Plates were then read on a MicroBeta plate counter (Perkin Elmer). Dose-response data for tested compounds were analyzed and curves were fit using a four parameter logistic fit to determine IC50 values. […]
On the technique in general: SPA uses beads or plates that emit light when radiolabelled molecules are held near them.

SMILES strings stand for the structures.

`COc1c(C#N)ccc(C2(F)CCOCC2)c1C(=O)N1CC(Oc2ccc(C(F)(F)F)cc2)C1` [Example 24, 4-(4-Fluorooxan-4-yl)-2-methoxy-3-({3-[4-(trifluoromethyl)phenoxy]azetidin-1-yl}carbonyl)benzonitrile]: the IC50 is 100 to 1000 nM. With `COc1c(S(C)(=O)=O)ccc(O[C@@H](C)C(F)(F)F)c1C(=O)N1CC(c2cccc(F)c2F)C1` [Example 157, 3-(2,3-Difluorophenyl)-1-(3-methanesulfonyl-2-methoxy-6-{[(2S)-1,1,1-trifluoropropan-2-yl]oxy}benzoyl)azetidine], the IC50 is below 100 nM. As to `COc1c(C#N)ccc(C2CCCC2)c1C(=O)N1CC(c2ncc(C(F)(F)F)cc2F)C1` [Example 210, 4-Cyclopentyl-3-{3-[3-fluoro-5-(trifluoromethyl)pyridin-2-yl]azetidine-1-carbonyl}-2-methoxybenzonitrile], the IC50 is below 100 nM. On to `COc1c(C#N)ccc(OC(C)C(F)(F)F)c1C(=O)N1CC(Oc2cccnc2)C1` (stereo not drawn) [Example 102, 2-Methoxy-3-{[3-(pyridin-3-yloxy)azetidin-1-yl]carbonyl}-4-[(1,1,1-trifluoropropan-2-yl)oxy]benzonitrile], for which the IC50 was 100 to 1000 nM.

Consider `COc1c(C#N)ccc(C2(F)CCOCC2)c1C(=O)N1CC(Oc2ccc(Cl)cc2)C1` [Example 28, 3-{[3-(4-Chlorophenoxy)azetidin-1-yl]carbonyl}-4-(4-fluorooxan-4-yl)-2-methoxybenzonitrile], for which the IC50 was 100 to 1000 nM. In the case of `COc1c(S(C)(=O)=O)ccc(O[C@@H](C)C(F)(F)F)c1C(=O)N1CC(Oc2ccc(Cl)cn2)C1` [Example 233, 5-Chloro-2-{[1-(3-methanesulfonyl-2-methoxy-6-{[(2S)-1,1,1-trifluoropropan-2-yl]oxy}benzoyl)azetidin-3-yl]oxy}pyridine], the IC50 is 100 to 1000 nM.

As to `C#Cc1cc(C(F)(F)F)cnc1C1CN(C(=O)c2c(O[C@@H](C)C(F)(F)F)ccc(S(C)(=O)=O)c2OC)C1` [Example 191, 3-Ethynyl-2-[1-(3-methanesulfonyl-2-methoxy-6-{[(2S)-1,1,1-trifluoropropan-2-yl]oxy}benzoyl)azetidin-3-yl]-5-(trifluoromethyl)pyridine], the IC50 is below 100 nM.

With `COc1c(S(C)(=O)=O)ccc(O[C@@H](C)C(F)(F)F)c1C(=O)N1CC(c2cc(C)ccc2F)C1` [Example 42, 3-(2-Fluoro-5-methylphenyl)-1-(3-methanesulfonyl-2-methoxy-6-{[(2S)-1,1,1-trifluoropropan-2-yl]oxy}benzoyl)azetidine], the IC50 was below 100 nM. Consider `CCOc1ccc(C#N)c(OC)c1C(=O)N1CC(c2ccc(C3CCOCC3)cn2)C1` [Example 165, 4-Ethoxy-2-methoxy-3-{3-[5-(oxan-4-yl)pyridin-2-yl]azetidine-1-carbonyl}benzonitrile], for which the IC50 is below 100 nM.

Take `COc1c(C#N)ccc(O[C@@H](C)C(F)(F)F)c1C(=O)N1CC(Cc2ccc(C(F)(F)F)cc2)C1` [Example 181, 2-Methoxy-3-[(3-{[4-(trifluoromethyl)phenyl]methyl}azetidin-1-yl)carbonyl]-4-{[(2S)-1,1,1-trifluoropropan-2-yl]oxy}benzonitrile]: the IC50 is 100 to 1000 nM. Take `COc1c(C#N)ccc(C2(F)CCOCC2)c1C(=O)N1CC(F)(c2ccc(F)c(F)c2)C1` [Example 18, 3-{[3-(3,4-Difluorophenyl)-3-fluoroazetidin-1-yl]carbonyl}-4-(4-fluorooxan-4-yl)-2-methoxybenzonitrile]: the IC50 is 100 to 1000 nM.

In the case of `COc1c(C#N)ccc(O[C@@H](C)C(F)(F)F)c1C(=O)N1CC(F)(c2ccc(C(F)(F)F)cc2)C1` [Example 69, 3-({3-Fluoro-3-[4-(trifluoromethyl)phenyl]azetidin-1-yl}carbonyl)-2-methoxy-4-{[(2S)-1,1,1-trifluoropropan-2-yl]oxy}benzonitrile], the IC50 was 100 to 1000 nM.
